Reference: patent US20250144067A1, “PERSONALIZED STARVATION THERAPY FOR CANCER” (Faeth Therapeutics, Inc., priority 2021, published 2025)
Where a name gives a salt, the structure may show the parent alone.

What was measured:
[1] = system: NCI-H292 lung cancer cells; assay: FDA drug screening, complete media vs cholesterol-free media without statin (TABLE 1); assay type: cell-based, human
[2] = system: NCI-H292 lung cancer cells; assay: FDA drug screening, complete media vs cholesterol-free media with simvastatin (TABLE 2); assay type: cell-based, human; settings: for Cholesterol-free media + simvastatin (0.04 μM) / Complete Media: NCI-H292 cells
[3] = Complete minus Cholesterol-free, >0 enhanced anti-cancer activity, about 0 neutral, <0 antagonist
[4] = NCI-H292 cells, cholesterol-free media without statin, FDA drug library screen
[5] = NCI-H292 cells, complete media, FDA drug library screen
[6] = cholesterol-free media with simvastatin 0.04 μM, cell growth value in FDA drug screen
[7] = complete media, cell growth value in FDA drug screen
[8] = complete media minus cholesterol-free media + simvastatin, >0 enhanced anti-cancer activity, about 0 neutral, <0 antagonist
[9] = complete vs cholesterol-free media, >0 enhanced anti-cancer activity, about 0 neutral, <0 antagonist
[10] = FDA drug library screen, cholesterol-free media with simvastatin 0.04 μM
[11] = FDA drug library screen, complete media
[12] = complete media vs cholesterol-free media + simvastatin (0.04 μM), >0 enhanced anti-cancer activity, about 0 neutral, <0 antagonist
[13] = NCI-H292 cells, cholesterol-free media without statin
[14] = complete vs cholesterol-free media, greater than 0 enhanced anti-cancer activity, about 0 neutral, below 0 antagonists
[15] = Complete minus Cholesterol-free, […]
[16] = cholesterol-free media with simvastatin 0.04 μM, […]
[17] = complete media minus cholesterol-free media + simvastatin, […]
[18] = Complete minus Cholesterol-free, greater than 0 enhanced anti-cancer activity, about 0 neutral, below 0 antagonists
[19] = NCI-H292 cells in cholesterol-free media without statin
[20] = NCI-H292 cells in complete media
[21] = cholesterol-free media with simvastatin 0.04 μM, FDA drug library screen (TABLE 2)
[22] = complete media, FDA drug library screen (TABLE 2)
[23] = complete media minus cholesterol-free media + simvastatin (0.04 μM), >0 enhanced anti-cancer activity, about 0 neutral, <0 antagonist
[24] = Complete minus Cholesterol-free, greater than 0 enhanced anti-cancer activity, about 0 neutral, below 0 antagonist
[25] = NCI-H292 cells, FDA drug library screen, cholesterol-free media without statin
[26] = NCI-H292 cells, FDA drug library screen, complete media
[27] = FDA library drug in cholesterol-free media with simvastatin 0.04 μM
[28] = FDA library drug in complete media
[29] = drug in cholesterol-free media with simvastatin 0.04 μM

## Cc1ccc(C(=O)C(C)CN2CCCCC2)cc1 (stereo not shown) [Tolperisone (hydrochloride)]
[1]; [3]
  Difference: 0.07
[1]; [4]
  Cholesterol-free: 1.37
[1]; [5]
  Complete: 1.436
[2]; [6]
  Cholesterol-free media + simvastatin (0.04 μM): 0.9156
[2]; [7]
  Complete Media: 0.9664
[2]; [8]
  Difference: 0.05

## CCCNC(C)C(=O)Nc1c(C)csc1C(=O)OC (stereo not shown) [Articaine (hydrochloride)]
[1]; [4]
  Cholesterol-free: 1.045
[1]; [5]
  Complete: 1.285
[1]; [9]
  Difference: 0.24
[2]; [10]
  Cholesterol-free media + simvastatin (0.04 μM): 0.9336
[2]; [11]
  Complete Media: 0.8247
[2]; [12]
  Difference: −0.11

## CC(C(=O)O)c1cccc(C(=O)c2ccccc2)c1 (stereo not shown) [Ketoprofen]
[1]; [13]
  Cholesterol-free: 1.284
[1]; NCI-H292 cells, complete media
  Complete: 0.8938
[1]; [14]
  Difference: −0.39
[2]; [6]
  Cholesterol-free media + simvastatin (0.04 μM): 0.9565
[2]; [7]
  Complete Media: 0.9752
[2]; [8]
  Difference: 0.02

## CSCCC(N)C(=O)O (racemic) [DL-Methionine]
[1]; [3]
  Difference: −0.06
[1]; [4]
  Cholesterol-free: 1.381
[1]; [5]
  Complete: 1.325
[2]; [6]
  Cholesterol-free media + simvastatin (0.04 μM): 0.9866
[2]; [7]
  Complete Media: 1.007
[2]; [8]
  Difference: 0.02

## N[C@H](CO)C(=O)O [(R)-Serine]
[1]; [13]
  Cholesterol-free: 1.718
[1]; NCI-H292 cells, complete media
  Complete: 1.345
[1]; [14]
  Difference: −0.37
[2]; [6]
  Cholesterol-free media + simvastatin (0.04 μM): 0.9633
[2]; [7]
  Complete Media: 1.052
[2]; [8]
  Difference: 0.09

## CC1=C(C)C(=O)C(CCCCCCCCCC[P+](c2ccccc2)(c2ccccc2)c2ccccc2)=CC1=O.[Br-] [Visomitin]
[1]; [15]
  Difference: −0.06
[1]; [4]
  Cholesterol-free: 0.06935
[1]; [5]
  Complete: 0.01194
[2]; [16]
  Cholesterol-free media + simvastatin (0.04 μM): 0.1378
[2]; complete media, […]
  Complete Media: 0.1554
[2]; [17]
  Difference: 0.02

## NCc1ccc(C(=O)O)cc1 [4-(Aminomethyl)benzoic acid]
[1]; [18]
  Difference: −0.68
[1]; [19]
  Cholesterol-free: 1.961
[1]; [20]
  Complete: 1.286
[2]; [21]
  Cholesterol-free media + simvastatin (0.04 μM): 1.68
[2]; [22]
  Complete Media: 1.637
[2]; [23]
  Difference: −0.04

## CCCCCCCCCCCCCCCCCC(=O)O [Stearic acid]
[1]; [24]
  Difference: −0.14
[1]; [25]
  Cholesterol-free: 1.159
[1]; [26]
  Complete: 1.022
[2]; [10]
  Cholesterol-free media + simvastatin (0.04 μM): 1.741
[2]; [23]
  Difference: −1.08

## CNCC[C@@H](Oc1ccccc1C)c1ccccc1 [Atomoxetine (hydrochloride)]
[1]; [18]
  Difference: −0.68
[1]; [19]
  Cholesterol-free: 1.663
[1]; [20]
  Complete: 0.988
[2]; [6]
  Cholesterol-free media + simvastatin (0.04 μM): 1.776
[2]; [7]
  Complete Media: 1.803
[2]; [8]
  Difference: 0.03

## CC(C)(C)N.CCC[C@H](N[C@@H](C)C(=O)N1[C@H](C(=O)O)C[C@@H]2CCCC[C@@H]21)C(=O)OCC [Perindopril (erbumine)]
[1]; [3]
  Difference: −0.25
[1]; [13]
  Cholesterol-free: 1.151
[1]; NCI-H292 cells, complete media
  Complete: 0.8989
[2]; [10]
  Cholesterol-free media + simvastatin (0.04 μM): 0.9237
[2]; [11]
  Complete Media: 0.7917
[2]; [12]
  Difference: −0.13

## COC(=O)N[C@H](C(=O)N1CC2(CC2)C[C@H]1c1nc(-c2ccc3c(c2)C(F)(F)c2cc(-c4ccc5[nH]c([C@@H]6[C@H]7CC[C@H](C7)N6C(=O)[C@@H](NC(=O)OC)C(C)C)nc5c4)ccc2-3)c[nH]1)C(C)C [Ledipasvir]
[1]; [24]
  Difference: −0.17
[1]; [25]
  Cholesterol-free: 0.5821
[1]; [26]
  Complete: 0.4142
[2]; [27]
  Cholesterol-free media + simvastatin (0.04 μM): 1.189
[2]; [28]
  Complete Media: 0.6926
[2]; [12]
  Difference: −0.50

## C[C@H]1C[C@H]2[C@@H]3CCC4=CC(=O)C=C[C@]4(C)[C@@]3(Cl)[C@@H](O)C[C@]2(C)[C@@]1(O)C(=O)CO [Beclometasone]
[1]; [15]
  Difference: −0.04
[1]; [4]
  Cholesterol-free: 1.244
[1]; [5]
  Complete: 1.205
[2]; [16]
  Cholesterol-free media + simvastatin (0.04 μM): 0.7122
[2]; complete media, […]
  Complete Media: 0.7656
[2]; [17]
  Difference: 0.05

## CC(=O)C1CCC2C3CC=C4CC(OS(=O)(=O)O)CCC4(C)C3CCC12C (stereo not shown) [Pregnenolone monosulfate]
[1]; [15]
  Difference: −0.11
[1]; [25]
  Cholesterol-free: 1.032
[1]; [26]
  Complete: 0.9202
[2]; [21]
  Cholesterol-free media + simvastatin (0.04 μM): 1.305
[2]; [22]
  Complete Media: 1.254
[2]; complete media minus cholesterol-free media + simvastatin (0.04 μM), […]
  Difference: −0.05

## Cl.NCC(=O)CCC(=O)O [5-Aminolevulinic acid (hydrochloride)]
[1]; [15]
  Difference: −0.75
[1]; [19]
  Cholesterol-free: 1.604
[1]; [20]
  Complete: 0.8558
[2]; [10]
  Cholesterol-free media + simvastatin (0.04 μM): 1.091
[2]; [11]
  Complete Media: 1.01
[2]; complete media vs cholesterol-free media + simvastatin (0.04 μM), […]
  Difference: −0.08

## Nc1ncnc2c1ncn2[C@@H]1O[C@H](CO)[C@@H](O)[C@@H]1O [Vidarabine]
[1]; [13]
  Cholesterol-free: 1.542
[1]; NCI-H292 cells, complete media
  Complete: 1.194
[1]; [14]
  Difference: −0.35
[2]; [29]
  Cholesterol-free media + simvastatin (0.04 μM): 0.9857
[2]; drug in complete media
  Complete Media: 0.8059
[2]; [12]
  Difference: −0.18

## Cn1cnc2c(F)c(Nc3ccc(Br)cc3F)c(C(=O)NOCCO)cc21 [Binimetinib]
[1]; [3]
  Difference: 0.01
[1]; [4]
  Cholesterol-free: 0.1731
[1]; [5]
  Complete: 0.1825
[2]; [10]
  Cholesterol-free media + simvastatin (0.04 μM): 0.4887
[2]; [11]
  Complete Media: 0.381
[2]; [12]
  Difference: −0.11

## CCn1c(=O)c2c(nc(/C=C/c3ccc(OC)c(OC)c3)n2C)n(CC)c1=O [Istradefylline]
[1]; [4]
  Cholesterol-free: 0.9821
[1]; [9]
  Difference: 0.19
[2]; [29]
  Cholesterol-free media + simvastatin (0.04 μM): 1.183
[2]; drug in complete media
  Complete Media: 0.9547
[2]; [12]
  Difference: −0.23

## O=C1OC2(c3ccc(O)cc3Oc3cc(O)ccc32)c2ccccc21 [Fluorescein]
[1]; [13]
  Cholesterol-free: 1.153
[1]; NCI-H292 cells, complete media
  Complete: 0.6958
[1]; [14]
  Difference: −0.46
[2]; [29]
  Cholesterol-free media + simvastatin (0.04 μM): 1.054
[2]; drug in complete media
  Complete Media: 0.8464
[2]; [12]
  Difference: −0.21

## CNC(=O)c1ccc(N2C(=S)N(c3ccc(C#N)c(C(F)(F)F)c3)C(=O)C2(C)C)cc1F [Enzalutamide]
[1]; [4]
  Cholesterol-free: 0.885
[1]; [5]
  Complete: 1.326
[1]; [9]
  Difference: 0.44
[2]; [27]
  Cholesterol-free media + simvastatin (0.04 μM): 0.7893
[2]; [28]
  Complete Media: 0.3116
[2]; [12]
  Difference: −0.48

## CN(C)CC(c1ccc(O)cc1)C1(O)CCCCC1 (stereo not shown) [Desvenlafaxine]
[1]; [13]
  Cholesterol-free: 1.158
[1]; NCI-H292 cells, complete media
  Complete: 0.8309
[1]; [14]
  Difference: −0.33
[2]; [6]
  Cholesterol-free media + simvastatin (0.04 μM): 1.047
[2]; [7]
  Complete Media: 1.102
[2]; [8]
  Difference: 0.05

## CN1[C@@H]2CC[C@H]1C[C@@H](OC(=O)c1c[nH]c3ccccc13)C2 [Tropisetron]
[1]; [13]
  Cholesterol-free: 1.242
[1]; NCI-H292 cells, complete media
  Complete: 0.8867
[1]; [14]
  Difference: −0.36
[2]; [10]
  Cholesterol-free media + simvastatin (0.04 μM): 0.8445
[2]; [11]
  Complete Media: 1.139
[2]; [8]
  Difference: 0.29

## Quetiapine (hemifumarate)
[1]; [3]
  Difference: −0.22
[1]; [13]
  Cholesterol-free: 0.9339
[1]; NCI-H292 cells, complete media
  Complete: 0.7112
[2]; [10]
  Cholesterol-free media + simvastatin (0.04 μM): 0.6141
[2]; [11]
  Complete Media: 0.8428
[2]; [8]
  Difference: 0.23
